Test results taken from ChEMBL document CHEMBL1201862, “PubChem BioAssay data set” (2004).
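A five-concentration, 48-hour dose response in 96-well plates underlies each endpoint, interpolated linearly between surrounding concentrations. Abbreviation: GI50, concentration required for 50% inhibition of growth.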 Active and inactive are the calls of the source. Rule as the data show it: active = GI50 up to about 1.1 µM and inactive = higher.

Legend:
Test in all cases: NCI anticancer screen, dose series, 48 h
IGROV-1 = system: IGROV-1
SK-MEL-5 = system: SK-MEL-5
HT-29 = system: HT-29
NCI/ADR-RES = system: NCI/ADR-RES
Hs-578T = system: Hs-578T
UO-31 = system: UO-31
Malme-3M = system: Malme-3M
SK-MEL-2 = system: SK-MEL-2
DU-145 = system: DU-145
M14 = system: M14
MDA-MB-435 = system: MDA-MB-435
SF-295 = system: SF-295
UACC-62 = system: UACC-62
NCI-H460 = system: NCI-H460
MDA-MB-231 = system: MDA-MB-231
CCRF-CEM = system: CCRF-CEM
786-0 = system: 786-0
MOLT-4 = system: MOLT-4
HOP-62 = system: HOP-62
NCI-H522 = system: NCI-H522
SR = system: SR
OVCAR-4 = system: OVCAR-4
ACHN = system: ACHN
OVCAR-5 = system: OVCAR-5
HCC 2998 = system: HCC 2998
SW-620 = system: SW-620
RPMI-8226 = system: RPMI-8226
MDA-N = system: MDA-N
NCI-H23 = system: NCI-H23
SK-MEL-28 = system: SK-MEL-28
BT-549 = system: BT-549
NCI-H226 = system: NCI-H226
SNB-75 = system: SNB-75
K562 = system: K562
HCT-116 = system: HCT-116
TK-10 = system: TK-10
RXF 393 = system: RXF 393
PC-3 = system: PC-3
SNB-19 = system: SNB-19
OVCAR-8 = system: OVCAR-8
SK-OV-3 = system: SK-OV-3
UACC-257 = system: UACC-257
KM12 = system: KM12
HCT-15 = system: HCT-15
COLO 205 = system: COLO 205
MCF7 = system: MCF7
SN12C = system: SN12C
HOP-92 = system: HOP-92
A549 = system: A549
U-251 = system: U-251
T47D = system: T47D
SF-268 = system: SF-268
CAKI-1 = system: CAKI-1
SF-539 = system: SF-539
OVCAR-3 = system: OVCAR-3

Compound: O=C(NNC(=S)Nc1cccc(Cl)c1)c1cc(-c2ccccc2)nc2ccccc12
- GI50 (IGROV-1): 18.7 µM (inactive)
- GI50 (SK-MEL-5): 16.9 µM (inactive)
- GI50 (HT-29): 20.4 µM (inactive)
- GI50 (NCI/ADR-RES): 20.4 µM (inactive)
- GI50 (Hs-578T): 19.6 µM (inactive)
- GI50 (UO-31): 15.1 µM (inactive)
- GI50 (Malme-3M): 15.4 µM (inactive)
- GI50 (SK-MEL-2): 13.8 µM (inactive)
- GI50 (DU-145): 15.6 µM (inactive)
- GI50 (M14): 17.5 µM (inactive)
- GI50 (MDA-MB-435): 16 µM (inactive)
- GI50 (SF-295): 11.7 µM (inactive)
- GI50 (UACC-62): 13.4 µM (inactive)
- GI50 (NCI-H460): 18.6 µM (inactive)
- GI50 (MDA-MB-231): 13.1 µM (inactive)
- GI50 (CCRF-CEM): 10.2 µM (inactive)
- GI50 (786-0): 17.1 µM (inactive)
- GI50 (MOLT-4): 28 µM (inactive)
- GI50 (HOP-62): 16.3 µM (inactive)
- GI50 (NCI-H522): 14.5 µM (inactive)
- GI50 (SR): 23.9 µM (inactive)
- GI50 (OVCAR-4): 14.3 µM (inactive)
- GI50 (ACHN): 16.3 µM (inactive)
- GI50 (OVCAR-5): 15.4 µM (inactive)
- GI50 (HCC 2998): 12.6 µM (inactive)
- GI50 (SW-620): 14.6 µM (inactive)
- GI50 (RPMI-8226): 6.68 µM (inactive)
- GI50 (MDA-N): 18.3 µM (inactive)
- GI50 (NCI-H23): 13.8 µM (inactive)
- GI50 (SK-MEL-28): 12.4 µM (inactive)
- GI50 (BT-549): 19.4 µM (inactive)
- GI50 (NCI-H226): 20 µM (inactive)
- GI50 (SNB-75): 23.8 µM (inactive)
- GI50 (K562): 20.7 µM (inactive)
- GI50 (HCT-116): 15.4 µM (inactive)
- GI50 (TK-10): 15.4 µM (inactive)
- GI50 (RXF 393): 16.1 µM (inactive)
- GI50 (PC-3): 15.1 µM (inactive)
- GI50 (SNB-19): 17 µM (inactive)
- GI50 (OVCAR-8): 20.7 µM (inactive)
- GI50 (SK-OV-3): 19.9 µM (inactive)
- GI50 (UACC-257): 15.7 µM (inactive)
- GI50 (KM12): 18.5 µM (inactive)
- GI50 (HCT-15): 14.6 µM
- GI50 (COLO 205): 12.9 µM (inactive)
- GI50 (MCF7): 10 µM (inactive)
- GI50 (SN12C): 14.7 µM (inactive)
- GI50 (HOP-92): 12.5 µM (inactive)
- GI50 (A549): 16.3 µM (inactive)
- GI50 (U-251): 12.3 µM (inactive)
- GI50 (T47D): 14.9 µM (inactive)
- GI50 (SF-268): 17 µM (inactive)
- GI50 (CAKI-1): 19.3 µM (inactive)
- GI50 (SF-539): 15.1 µM (inactive)
- GI50 (OVCAR-3): 15.1 µM (inactive)
